This is an account of results in patent US4317821A, “Maytansinoids, their use and pharmaceutical compositions thereof” (Takeda Chemical Industries, Ltd., priority 1979, dated 1982).

Values after ≈ are worked out from the molar mass of the structure shown. Bounds are passed on as bounds.

Assay [1] has as its system melanoma B-16 tumor cells. Briefly: Antitumor activity: life span prolongation in mice intraperitoneally transplanted with melanoma B-16 (NCI-protocol 1,300). The assay is classed as in vivo. To be noted: intraperitoneally once daily for 9 consecutive days. As to the method: Therapeutic tests were carried out in mice according to NCI-protocol 1,300, Cancer Chemother, Reports, Part 3, 1972, Vol. 3, No. 2, in which melanoma B-16 tumor cells had been intraperitoneally transplanted, compound (I) being administered intraperitoneally once daily for 9 consecutive days.

In assay [2] the test system is Tetrahymena pyriformis W. The experiment in a line: Antiprotozoal activity: growth inhibition by serial dilution method. The assay is classed as cell-based. To be noted: 28° C., 44 to 48 hours, pH 7.0 medium. As to the method:
Antiprotozoal activity of compound (I) was assayed with Tetrahymena pyriformis W as the test organism and a medium composed of 20 g tryptose-peptone (Difco Co.), 1 g yeast extract, 2 g glucose, 1000 ml distilled water, 10 ml 1 M phosphate buffer (pH 7.0) as the assay medium. The microorganism was incubated at 28° C. for 44 to 48 hours and the growth inhibitory activity of compound (I) was assayed by the serial dilution method.

On to `COc1cc2cc(c1Cl)N(C)C(=O)CC(OC(=O)C(O)c1ccccc1)C1(C)OC1C(C)C1CC(O)(NC(=O)O1)C(OC)C=CC=C(C)C2` (single isomer, unassigned) [maytansinol 3-α-hydroxyphenylacetate], for which the “Antitumor activities B-16 (T/C %)” value is on record as 178% in assay [1] (dose 100 μg/kg), 208% in assay [1] (dose 200 μg/kg), 247% in assay [1] (dose 400 μg/kg) and 217% in assay [1] (dose 800 μg/kg).
Broadly, the MIC is the lowest concentration that inhibits growth of the organism. Read a high MIC as a need for much substance. Turning to `COc1cc2cc(c1Cl)N(C)C(=O)CC(OC(=O)C(OC(C)=O)c1ccccc1)C1(C)OC1C(C)C1CC(O)(NC(=O)O1)C(OC)C=CC=C(C)C2` (stereo not drawn) [Maytansinol 3-α-acetoxyphenylacetate, maytansinol 3-(α-acetoxyphenyl)acetate], the “Antitumor activities B-16 (T/C %)” value in assay [1] (dose 3.125 μg/kg) is reported as 181%; in assay [1] (dose 6.25 μg/kg), 260%; in assay [1] (dose 12.5 μg/kg) it was 161%. In assay [2], the MIC was less than 2 µg/mL.
With `COc1cc2cc(c1Cl)N(C)C(=O)CC(OC(=O)C(COC(C)=O)c1ccccc1)C1(C)OC1C(C)C1CC(O)(NC(=O)O1)C(OC)C=CC=C(C)C2` (stereo not drawn) [maytansinol 3-α-acetoxymethylphenylacetate], the minimal inhibitory concentration (MIC) in assay [2] was in the range of 1 to 2 µg/mL (≈ 1.32 to 2.65 µM).
